Article PMC5460289, “Identification of New Shikonin Derivatives as Antitumor Agents Targeting STAT3 SH2 Domain” (Scientific Reports, 2017)

Experiments:
MCF-7 = assay: MTT anti-proliferation assay; format: cell-based, human; details: Homo sapiens, MCF7, 24 h treatment
Procedure: (§1) Initial experiments were performed for evaluation of growth inhibition by the new compounds against six human breast cancer cell lines, including MCF-7 (ER+/PR+, HER-2-), BT474 (ER+/PR+, HER-2+), SKBR-3 (ER-/PR-/HER-2+), MDA-MB-436 (ER-/PR-/HER-2-), MDA-MB-231 (ER-/PR-/HER-2-), MDA-MB-468 (ER-/PR-/HER-2-) and non-tumorigenic MCF-10A cells. After 24 h treatment by the obtained compounds, the inhibition was assessed and the IC50 was summarized. […] Subsequently, the inhibition of STAT3 activation by PMM-172 and Stattic was evaluated using a dual-luciferase assay.
(§2) The anti-proliferative activities of the prepared compounds against MCF-7 (ER+/PR+, HER-2-), BT474 (ER+/PR+, HER-2+), SKBR-3 (ER-/PR-/HER-2+), MDA-MB-436 (ER-/PR-/HER-2-), MDA-MB-231 (ER-/PR-/HER-2-), MDA-MB-468 (ER-/PR-/HER-2-) and non-tumorigenic MCF-10A cell lines were evaluated using a standard (MTT)-based colorimetric assay with some modification. Cell lines were grown to log phase in DMEM supplemented with 10% fetal bovine serum. Cell suspensions were prepared and 100 μL/well dispensed into 96-well plates giving 10^4 cells/well. The subsequent incubation was permitted at 37 °C, 5% CO2 atmosphere for 24 h to allow the cells to reattach. Subsequently, cells were treated with the target compounds at increasing concentrations in the presence of 10% FBS for 24 h. Then, cell viability was assessed by the conventional 3-(4, 5-dimethylthiazol-2-yl)-2, 5-diphenyltetrazolium bromide (MTT) reduction assay and carried out strictly according to the manufacturer instructions. The absorbance (OD570) was read on an ELISA reader (Tecan, Austria). In all experiments, three replicate wells were used for each drug concentration. Each assay was carried out for at least three times.

BT-474 = assay: MTT anti-proliferation assay; format: cell-based, human; details: Homo sapiens, BT-474, 24 h treatment
Procedure: as §1, §2

SKBR-3 = assay: MTT anti-proliferation assay; format: cell-based, human; details: Homo sapiens, SK-BR-3, 24 h treatment
Procedure: as §1, §2

MDA-MB-468 = assay: MTT anti-proliferation assay; format: cell-based, human; details: Homo sapiens, MDA-MB-468, 24 h treatment
Procedure: as §1, §2

MDA-MB-436 = assay: MTT anti-proliferation assay; format: cell-based, human; details: Homo sapiens, MDA-MB-436, 24 h treatment
Procedure: as §1, §2

MDA-MB-231 = assay: MTT anti-proliferation assay; format: cell-based, human; details: Homo sapiens, MDA-MB-231, 24 h treatment
Procedure: as §1, §2

[1] = MTT anti-proliferation assay, non-tumorigenic cells; format: cell-based; details: human, non-tumorigenic MCF-10A cells, 24 h treatment
Procedure: as §1, §2

IC50 (MCF-7) [µM]	IC50 (BT-474) [µM]	IC50 (SKBR-3) [µM]	IC50 (MDA-MB-468) [µM]	IC50 (MDA-MB-436) [µM]	IC50 (MDA-MB-231) [µM]	SMILES	CC50 at 24 h [1] [µM]
6.41 ± 0.75	6.91 ± 0.73	4.87 ± 0.58	4.07 ± 0.66	4.66 ± 0.59	3.64 ± 0.91	CC(C)=CC[C@@H](OC(=O)CSc1nnc(-c2cccc(Br)c2)o1)C1=CC(=O)c2c(O)ccc(O)c2C1=O [PMM-166, (R)-1-(5,8-dihydroxy-1,4-dioxo-1,4-dihydronaphthalen-2-yl)-4-methylpent-3-en-1-yl 2-((5-(3-bromophenyl)-1,3,4-oxadiazol-2-yl)thio)acetate]	69.9 ± 0.58
15.3 ± 0.61	13.7 ± 0.92	9.76 ± 0.95	12.2 ± 0.42	10.6 ± 0.82	9.01 ± 0.56	CC(C)=CC[C@@H](OC(=O)CSc1nnc(-c2ccccc2Br)o1)C1=CC(=O)c2c(O)ccc(O)c2C1=O [PMM-167, (R)-1-(5,8-dihydroxy-1,4-dioxo-1,4-dihydronaphthalen-2-yl)-4-methylpent-3-en-1-yl 2-((5-(2-bromophenyl)-1,3,4-oxadiazol-2-yl)thio)acetate]	72.5 ± 1.53
8.12 ± 0.98	8.36 ± 0.97	6.95 ± 0.82	7.22 ± 1.11	7.36 ± 0.87	5.33 ± 0.77	COc1cccc(-c2nnc(SCC(=O)O[C@H](CC=C(C)C)C3=CC(=O)c4c(O)ccc(O)c4C3=O)o2)c1 [PMM-169, (R)-1-(5,8-dihydroxy-1,4-dioxo-1,4-dihydronaphthalen-2-yl)-4-methylpent-3-en-1-yl 2-((5-(3-methoxyphenyl)-1,3,4-oxadiazol-2-yl)thio)acetate]	99.5 ± 0.49
